Assay results from US4788304A, “Phospholipase A2 inhibitors” (American Home Products Corporation, priority 1987, dated 1988).

Assays:
[1] = tested on: bronchospasm induced in guinea pigs by endogenous mediators of the bronchoconstriction; test: Ovalbumin-induced bronchospasm in guinea pigs; type: in vivo, guinea pig (Hartley); conditions: Cavia porcellus; intraduodenally administered, 10 minutes before intravenously administered ovalbumin challenge
Protocol: The assay of this Example measures the in vivo ability of the compounds in the scope of the invention to inhibit the bronchospasm induced in guinea pigs by endogenous mediators of the bronchoconstriction.
Male Hartley strain guinea pigs weighing 250-350 g are sensitized to chicken ovalbumin (OA) (10 mg i.p.) on days 1 and 3 and used starting on day 26. The animals are anesthetized with pentobarbital sodium (50 mg/kg, i.p.), bilateral vagotomy is performed, and the jugular vein is cannulated for injection of drugs and the carotid artery for monitoring blood pressure. The trachea is cannulated for artificial ventilation by miniature Starling pump and for indirect measurement of respiratory volume changes as described, infra. Succinylcholine (2 mg/kg, i.v.) is administered to arrest spontaneous respiration. […]
Respiratory volume changes are determined by a calibrated piston whose travel is recorded, via a linear transducer, on a Beckman Dynograph recorder. Maximal bronchoconstrictor volume is determined by clamping off the trachea at the end of the experiment. Overflow volumes at minutes 1, 3 and 5 are obtained from the recorded charts.
Area under the volume overflow curve (AUC) is estimated, using the overflow values at 1, 3 and 5 minutes, and expressed as a percentage of the maximal overflow AUC (equation 1): [formula] […]

[2] = tested on: AA-induced mouse ear edema; test: Arachidonic acid (AA)-induced murine ear edema test; type: in vivo, mouse (Swiss Webster); conditions: 1 mg/ear, 30 min prior to AA, measured 1 h after AA
[3] = tested on: TPA-induced mouse ear edema; test: TPA-induced murine ear edema test; type: in vivo, mouse (Swiss Webster); conditions: 1 mg/ear, 30 min after TPA, measured 4 h after TPA
[4] = tested on: synthesis of LTB4 by rat glycogen-elicited polymorphonuclear leukocytes (PMN); test: Inhibition of LTB4 synthesis by rat glycogen-elicited polymorphonuclear leukocytes (PMN); type: cell-based, rat (female Wistar); conditions: Leukocyte, A23187-stimulated rat PMN
human platelet PLA2 = target: T1, human platelet PLA2 (Homo sapiens, UniProt P14555); test: Inhibition of cell free human platelet PLA2 (hydrolysis of [3H]-AA labelled E. coli phospholipids); type: biochemical; conditions: 30 min
T1 construct: The PLA2 enriched supernatant fluid is removed and the amount of protein is determined by the Lowry method; from tissue; host or cells: expired human platelets from the blood bank (acid extract, not purified)
T1 sequence (P14555 21-144): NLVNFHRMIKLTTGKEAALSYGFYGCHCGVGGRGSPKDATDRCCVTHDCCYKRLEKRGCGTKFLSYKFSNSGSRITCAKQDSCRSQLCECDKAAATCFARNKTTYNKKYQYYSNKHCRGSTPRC
Protocol: The ability of the compounds in the scope of the invention to inhibit the activity of cell free human platelet PLA2 enzyme is measured in the following in vitro assay.
E. coli, cultured to exponential growth, are sedimented for 15 minutes at 10,000 g and resuspended in sterile isotonic saline (1-3 ml). 10-25 μCi uniformly labeled [^3 H]-arachidonic acid (AA) is added to a sterile flask, evaporated by N2 and resolubilized with 0.3 ml 20% fatty acid-free bovine serum albumen (BSA). 75-100 ml of nutrient broth and 1 ml E. coli are then added to each flask and incubated for 2-3 hours at 37° C. [^3 H]-AA labelled E. coli are then sedimented, suspended in saline and added to fresh nutrient broth and incubated for 1.5 hours at 37° C. to complete [^3 H]-AA incorporation into the phospholipids. After overnight refrigeration of cultures, E. coli are again sedimented, suspended in saline and autoclaved for 15 minutes at 120° C. E. coli cultures are washed twice with saline (first wash contains 1 % BSA) and resuspended in saline. Non-labelled E. coli cultures are also prepared in the same manner. Cell number is determined by measuring the optical density at […] (3×10 cell/ml=1 O.D.). The amount of radioactivity associated with cells is determined by counting a defined volume of cell suspension. The specific activity is subsequently adjusted by adding non-labelled E. coli to yield 2-4×10 cpm per 1×10^10 E. coli.
Expired human platelets from the blood bank are centrifuged for 15 minutes at 200 g to obtain a platelet rich fraction and to remove the red blood cells. Platelets are sedimented for 15 minutes at 2500 g and the plasma is removed before adding cold 0.18N H2 SO4 (4 ml/unit). Platelets are homogenized, incubated for 1 hour at 4° C., homogenized again and centrifuged for 15 minutes at 10,000 g. The PLA2 enriched supernatant fluid is removed and the amount of protein is determined by the Lowry method. The preparation is divided into various portions and stored at -20° C.
The assay measures the hydrolysis of E. coli membrane phospholipids and the release of free [^3 H]-AA from the C-2 position of phospholipids by human platelet PLA2. To ice cold 15×100 mm test tubes, the following additions are made; 2.5×10^8 E. coli (equivalent to 5 nmol phospholipid), 5 mM Ca++, 100 mM Tris buffer (pH=7.4), 100 μg platelet extract (or an amount to produce 20-30% hydrolysis), drug or vehicle. Incubation are carried out at 37° C. in a shaking water bath for 30 minutes. The reaction is terminated by the addition of 2 volumes of tetrahydrofuran (THF) and the mixture is vortexed. Hydrolyzed [^3 H]-AA is separated from unhydrolyzed phospholipid by solid phase extraction using Bond elute NH2 columns (Analytichem Intermat.). Columns are conditioned with 0.5 ml THF followed by 0.5 ml THF:H2 O (2.0:0.1 ml v/v). Samples are loaded onto columns and hydrolyzed [^3 H]-AA is eluted with 1 ml THF:glacial acetic acid (98.0:2.0 ml v/v). The elutant is transferred to vials, 10 ml Optifluor is added and the radioactivity is determined by liquid scintillation counting.
Treatments are corrected for non-enzymatic hydrolysis by subtracting the dpms in treatments containing no enzyme. Mean [^3 H]-AA dpm is determined and a percent inhibition relative to vehicle treated samples is calculated.
The percent hydrolysis is calculated by the following equation: [formula]

For `COC(=O)C1(C(=O)CCCCOc2ccc(Cl)cc2)CO1` (stereo not drawn) [Example 6A, 2-[5-(4-Chlorophenoxy)-1-oxopentyl]-2-oxiranecarboxylic acid methyl ester], the ED50 [1] was 13.5 mg/kg, the “Mouse Ear Edema Assay, % Change from Control, TOPICAL, AA” value [2] was -38% and the “Mouse Ear Edema Assay, % Change from Control, TOPICAL, TPA” value [3] was -42%. It also gave an inhibition at 10 µM [4] of 11%, an inhibition at 50 µM (human platelet PLA2; at 50 μM, pH 7.4, 37° C.) of 83.2% and an IC50 (human platelet PLA2; cell free human platelet PLA2, pH 7.4, 37° C., read-out: IC50 (PLA2)) of 10.7 µM.
